Data as given in patent publication US20250154089A1, “METHODS FOR PREPARING OXYRESVERATROL AND DERIVATIVES THEREOF” (Caliway Biopharmaceuticals Co., Ltd., priority 2023, published 2025).

Test system: melanin production induced by α-MSH
Assay: Inhibition of melanin production induced by α-MSH
Type: cell-based
Conditions: for Melanin content (%), Mean: α-MSH 0.1 μM 24 hours + TA treat 24 hours, 0.2% DMSO, α-MSH group = 100.0
Description: This example explores the bioactivity of the synthesized oxyresveratrol compound in inhibiting melanin production as relative to commercial oxyresveratrol extracted from plant sources.

## Oc1cc(O)cc(/C=C/c2ccc(O)cc2O)c1 [Commercial, oxyresveratrol]
32 and 128 μM
  Inhibition of melanin production induced by α-MSH (in words): inhibited melanin production
TA conc. 32 μM
  Melanin content (%), Mean: 77.4%
TA conc. 128 μM
  Melanin content (%), Mean: 45.5%

## Oc1cc(O)cc(/C=C/c2ccc(O)cc2O)c1 [Synthetic, oxyresveratrol]
TA conc. 32 μM
  Melanin content (%), Mean: 75.7%
TA conc. 128 μM
  Melanin content (%), Mean: 38.5%
e.g., at 128 μM
  Inhibitory activity on melanin production compared with the commercial material (in words): greater inhibitory activity
